# Laboratory results reported in patent US20220041616A1, “SPIRO COMPOUND AND MEDICAL USES THEREOF” (The National Institutes of Pharmaceutical R&D Co., Ltd., priority 2018, published 2022).
# Biological target: T1, ACC1 (Homo sapiens, UniProt Q13085)
# T1 construct: purchased BPS bioscience
# Assay: In vitro inhibition of ACC1 activity, ADP-Glo Kinase Analysis
# Type: biochemical
# Details: 1 nM ACC1, 10 μM acetyl-CoA, 20 μM ATP
# How it was run: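 Enzyme was preincubated with compound for 15 min, then reacted for 30 min at room temperature in 5% DMSO, with ADP measured by ADP-Glo luminescence. ACC1: 1 nM, with 10 μM acetyl-CoA, 30 mM NaHCO3 and 20 μM ATP. ACC2: 1.1 nM, with 20 μM acetyl-CoA, 20 mM NaHCO3 and 15 μM ATP.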
row,IC50 [nM],SMILES
1,< 10,"COc1ccccc1C(CN1C(=O)C2(CC(C(=O)O)C2)C(=O)c2c1sc(-c1ncco1)c2C)OC1CCOCC1 (mixture of isomers) [Compound 8, 7′-(2-(2-methoxyphenyl)-2-((tetrahydro-2H-pyran-4-yl)oxy)ethyl)-3′-methyl-2′-(oxazol-2-yl)-4′,6′-dioxo-6′,7′-dihydro-4′H-spiro[cyclobutane-1,5′-thieno[2,3-b]pyridine]-3-carboxylic Acid]"
2,< 10,"COc1ccccc1C(CN1C(=O)C2(CC(C(=O)O)C2)C(=O)c2c1sc(-c1ncco1)c2C)OC1CCOCC1 (single isomer, unassigned) [Compound 8d, 7′-(2-(2-methoxyphenyl)-2-((tetrahydro-2H-pyran-4-yl)oxy)ethyl)-3′-methyl-2′-(oxazol-2-yl)-4′,6′-dioxo-6′,7′-dihydro-4′H-spiro[cyclobutane-1,5′-thieno[2,3-b]pyridine]-3-carboxylic Acid]"
3,< 10,"COc1ccccc1[C@H](CN1c2sc(-c3ncco3)c(C)c2C(=O)[C@]2(C[C@H](C(=O)O)C2)C1=O)OC1CCOCC1 [Compound 8c, 7′-(2-(2-methoxyphenyl)-2-((tetrahydro-2H-pyran-4-yl)oxy)ethyl)-3′-methyl-2′-(oxazol-2-yl)-4′,6′-dioxo-6′,7′-dihydro-4′H-spiro[cyclobutane-1,5′-thieno[2,3-b]pyridine]-3-carboxylic Acid]"

# Further lines, the molecule ahead of its results:
row,SMILES,IC50 [nM]
1,"COc1ccccc1C(CN1C(=O)C2(CCC(C(=O)O)C2)C(=O)c2c1sc(-c1ncco1)c2C)OC1CCOCC1 (mixture of isomers) [Compound 5x, 7′-(2-(2-methoxyphenyl)-2-((tetrahydro-2H-pyran-4-yl)oxy)ethyl)-3′-methyl-2′-(oxazol-2-yl)-4′,6′-dioxo-6′,7′-dihydro-4′H-spiro[cyclopentane-1,5′-thieno[2,3-b]pyridine]-3-carboxylic Acid]",< 10
2,"COc1ccccc1C(CN1C(=O)C2(CCC(C(=O)O)C2)C(=O)c2c1sc(-c1ncco1)c2C)OC1CCOCC1 (mixture of isomers) [Compound 5y, 7′-(2-(2-methoxyphenyl)-2-((tetrahydro-2H-pyran-4-yl)oxy)ethyl)-3′-methyl-2′-(oxazol-2-yl)-4′,6′-dioxo-6′,7′-dihydro-4′H-spiro[cyclopentane-1,5′-thieno[2,3-b]pyridine]-3-carboxylic Acid]",< 10
3,"COc1ccccc1C(CN1C(=O)C2(CCC(C(=O)O)C2)C(=O)c2c1sc(-c1ncco1)c2C)OC1CCOCC1 (single isomer, unassigned) [Compound 5b, 7′-(2-(2-methoxyphenyl)-2-((tetrahydro-2H-pyran-4-yl)oxy)ethyl)-3′-methyl-2′-(oxazol-2-yl)-4′,6′-dioxo-6′,7′-dihydro-4′H-spiro[cyclopentane-1,5′-thieno[2,3-b]pyridine]-3-carboxylic Acid]",< 10
